Test results: EP0452935B1, “Chiral 2-(phosphonomethoxy)propyl guanines as antiviral agents” (INSTITUTE OF ORGANIC CHEMISTRY AND BIOCHEMISTRY OF THE …, priority 1990, dated 1991)
≈ marks a conversion by molar mass, not a printed value.

Columns and labels:
Type in all cases: cell-based
[1] = test system: herpes simplex virus Type 2 (HSV-2); experiment: plaque reduction assay, HSV-2 in vero cells; conditions: Human alphaherpesvirus 2, G strain, 48 hour incubation
Protocol: (§1) The compounds were evaluated for antiviral activity in vitro by the standard plaque reduction assay. Experiments were conducted with vero cells (African Green Monkey Kidney cells) infected with herpes simplex virus Type 1 (HSV-1) [BW^s strain, C. D. Sibrack et al., Infect. Dis., 1982, 146, 673] and herpes simplex virus Type 2 (HSV-2) [G strain, obtained from American Tissue Culture Collection, Rockville, MD] and with MRC-5 cells (human embryonic lung (diploid) cells) infected with human cytomegalovirus (HCMV) [AD169 strain, obtained from American Tissue Culture Collection, Rockville, MD]. Briefly, confluent cell monolayers in 24-well plates were infected with 30-50 plaque-forming units of virus in 100 »l of phosphate-buffered saline. After a 1 hour adsorption period, residual inoculum was replaced with 1 mL of the appropriate dilution of the test compound which had been freshly prepared in Eagle's minimal essential medium (EMEM) containing 10% fetal bovine serum. After a 48 hour incubation period at 37°C in a 5% CO₂ atmosphere, cell monolayers were fixed and stained with Carbol fuchsin and plaques were counted. The antiviral potency of the compound was determined by IC₅₀, the inhibitory concentration necessary to reduce the number of plaques by 50% of those in the virus control cultures.

in vitro [2] = conditions: human, cem-ss cells
Protocol: (§2) Compounds were evaluated for activity against human immunodeficiency virus (LAVBRU strain obtained from Luc Montagnier, Institut Pasteur, Paris, France) in CEM-SS cells (P. L. Nara et al., in AIDS Res. Human. Retroviruses, 1987, 3, 283-302) or in MT-4 cells (S. Harada, et al., in Science, 1985, 229, 563-566) using the XTT assay described by O. S. Weislow et al., in J. Natl. Cancer Instit., 1989, 81, 577-586. CEM-SS cells were obtained from Owen Weislow at the National Cancer Institute, and MT-4 cells were obtained from Doug Richman at the University of California at San Diego. Cells were exposed to HIV and cultured in microtiter plates in the presence of test compounds at concentrations of 0.0013, 0.0064, 0.032, 0.16, 0.8, 4, 20, 100, and 500 »M. On day 7 post-infection, the antiviral effect was measured using the XTT assay in which an optical density (OD) reading is obtained at each drug concentration. The optical density reading is proportional to the number of viable cells. Assays run in infected cells show the antiviral effect of the test compounds, where an increase in the number of viable cells (higher OD reading) reflects the protective, antiviral activity of the compound. Assays run in uninfected cells provide a measure of cellular toxicity. The antiviral effect is also expressed (see Table 2) as the concentration of compound which increases the number of viable cells in infected cultures to 50%, that of the untreated, uninfected control cultures (ED₅₀). The cellular toxicity is expressed as the concentration of compound which reduces the number of viable cells to 50%, that of the untreated control (TD₅₀). The selectivity index (SI) is the ratio of TD₅₀ to ED₅₀. The anti-HIV activity and cellular toxicity of the test compounds are plotted in FIGS. 1-7 as a function of optical density verus increasing log concentrations of the test compounds (XTT assay).

[3] = test system: human immunodeficiency virus (LAVBRU strain); experiment: anti-HIV XTT assay in infected CEM-SS cells; conditions: for anti-HIV activity (in words): XTT assay (FIGS. 4, 6, 7); for EC50: infected CEM-SS cells, XTT assay, day 7 post-infection, viable cells increased to 50% of uninfected control, NA = Not active at concentrations up to 500 µM, read-out: ED50 (the source's name); for SI: Selectivity Index: Ratio of TD50 to ED50, CEM-SS cells, 10080 min
Protocol: as §2

[4] = test system: herpes simplex virus Type 1 (HSV-1); experiment: plaque reduction assay, HSV-1 in vero cells; conditions: Human alphaherpesvirus 1, BW^s strain, 48 hour incubation
Protocol: as §1

[5] = test system: human cytomegalovirus (HCMV); experiment: plaque reduction assay, HCMV in MRC-5 cells; conditions: Human betaherpesvirus 5, MRC5, AD169 strain
Protocol: as §1

in vitro [6] = conditions: human, mt-4 cells
Protocol: as §2, with “The antiviral effect is also expressed (see Table 2) as the concentration of compound which increases the number of viable cells in infected cultures to 50%, that of the untreated, uninfected control cultures (ED₅₀). The cellular toxicity is expressed as the concentration of compound which reduces the number of viable cells to 50%, that of the untreated control (TD₅₀). The selectivity index (SI) is the ratio of TD₅₀ to ED₅₀. The anti-HIV activity and cellular toxicity of the test compounds are plotted in FIGS. 1-7 as a function of optical density verus increasing log concentrations of the test compounds (XTT assay).” left out

CEM-SS cells = experiment: in vitro
Protocol: as §2

[7] = test system: human immunodeficiency virus (LAVBRU strain); experiment: anti-HIV XTT assay in infected MT-4 cells; conditions: MT4 cells, XTT assay (FIG. 2)
Protocol: as §2, with “The antiviral effect is also expressed (see Table 2) as the concentration of compound which increases the number of viable cells in infected cultures to 50%, that of the untreated, uninfected control cultures (ED₅₀). The cellular toxicity is expressed as the concentration of compound which reduces the number of viable cells to 50%, that of the untreated control (TD₅₀). The selectivity index (SI) is the ratio of TD₅₀ to ED₅₀. The anti-HIV activity and cellular toxicity of the test compounds are plotted in FIGS. 1-7 as a function of optical density verus increasing log concentrations of the test compounds (XTT assay).” left out

[8] = Human immunodeficiency virus 1, 168 h

Row | SMILES | IC50 [1] | CC50 (in vitro [2]) | anti-HIV activity (in words) ([3]; CEM-SS cells) | EC50 [3, 8] | SI [3] | IC50 [4] | IC50 [5] | MNTC (in vitro [2]) | EC100 ([3]; Human immunodeficiency virus 1, 168 h, CEM-SS cells, XTT assay (FIGS. 3, 5), read-out: concentration giving complete protection from HIV) | MNTC at 168 h (in vitro [6]) | cytotoxicity relative to (R)-2'-methyl-PMEG (CEM-SS cells) | CC50 (CEM-SS cells; human, cem-ss cells) | MCC at 168 h (in vitro [6]) | anti-HIV effect (in words) [7]
1 | Nc1nc2c(ncn2C[C@H](CO)OCP(=O)(O)O)c(=O)[nH]1 [(R)-HPMPG, (R)-9-[3-hydroxy-2-(phosphonomethoxy)propyl]guanine] | 32 µg/mL (≈ 100 µM) | > 500 µM | clearly inactive | 500 µM | >1 | 32 µg/mL (≈ 100 µM) | 0.5 µg/mL (≈ 1.57 µM) | – | – | – | – | – | – | –
2 | Nc1nc2c(ncn2C[C@@H](CO)OCP(=O)(O)O)c(=O)[nH]1 [(S)-HPMPG, (S)-9-[3-hydroxy-2-(phosphonomethoxy)propyl]guanine] | 31 µg/mL (≈ 97.1 µM) | 350 µM | clearly inactive | – | – | 8 µg/mL (≈ 25.1 µM) | 0.9 µg/mL (≈ 2.82 µM) | – | – | – | – | – | – | –
3 | C[C@@H](Cn1cnc2c(=O)[nH]c(N)nc21)OCP(=O)(O)O [(S)-2'-methyl-PMEG, (S)-9-[2-(phosphonomethoxy)propyl]guanine] | 25 µg/mL (≈ 82.4 µM) | 300 µM | active | 12 µM | 25 | – | 5 µg/mL (≈ 16.5 µM) | < 100 µM | 100 µM | – | – | – | – | –
4 | C[C@H](Cn1cnc2c(=O)[nH]c(N)nc21)OCP(=O)(O)O [(R)-2'-methyl-PMEG, (R)-9-[2-(phosphonomethoxy)propyl]guanine] | 25 µg/mL (≈ 82.4 µM) | > 500 µM | active | 1 µM | – | – | 5 µg/mL (≈ 16.5 µM) | < 100 µM | – | < 100 µM | – | – | – | –
5 | Nc1nc2c(ncn2CCOCP(=O)(O)O)c(=O)[nH]1 [PMEG, 9-[2-(phosphonomethoxy)ethyl]guanine] | 0.31 µg/mL (≈ 1.07 µM) | – | some anti-HIV effect | 0.2 µM | 30 | 0.09 µg/mL (≈ 0.311 µM) | < 0.1 µg/mL | – | – | – | approximately 30 fold | 15 µM | > 100 nM | no anti-HIV effect can be measured
